Literature values, collected in PubChem BioAssay AID1259409 (Chemical Carcinogenesis Research Information System (CCRIS), 2018).

Test system: rodent chemically induced tumor inhibition, incidence and multiplicity
Assay: CCRIS tumor inhibitor studies
Conditions: for outcome: Carcinogen: SUBCUTANEOUS, Dose [Inhibitor]: 1,2-DIMETHYLHYDRAZINE, 540-73-8, Route [Inhibitor]: 0, 20 UG/ML IN DRINKING WATER 14 HR/D AT NIGHT TIME FOR 6 MO (STUDY DURATION: 6 MO), Dose [Carcinogen]: NONE

Question: With `COc1ccc2[nH]cc(CCNC(C)=O)c2c1` as the compound, how does the “tumour outcome (control, treated, inhibition, significance)” value (Carcinogen: N,N-DIETHYLNITROSAMINE [55-18-5], Dose [Inhibitor]: 400 PPM IN DIET, BEGINNING 1 WK AFTER FINAL CARCINOGEN DOSE, FOR STUDY DURATION (STUDY DURATION: 24 WK), Route [Inhibitor]: ORAL, Species: RAT, Strain/Sex: F344/MALE, Target Tissue: Type of Lesion: LIVER: HEPATOCELLULAR ADENOMA AND CARCINOMA, Dose [Carcinogen]: 100 MG/KG BW, 1/WK FOR 3 WK, Promoter: PHENOBARBITAL [50-06-6]) read?
Answer: 24/24 (100%), 15/23 (65%), 35%, p<0.002

Question: What about the “tumour outcome (control, treated, inhibition, significance)” value (Carcinogen: N,N-DIETHYLNITROSAMINE [55-18-5], Dose [Inhibitor]: 400 PPM IN DIET, BEGINNING 1 WK AFTER FINAL CARCINOGEN DOSE, FOR STUDY DURATION (STUDY DURATION: 24 WK), Route [Inhibitor]: ORAL, Species: RAT, Strain/Sex: F344/MALE, Target Tissue: Type of Lesion: LIVER: HEPATOCELLULAR ADENOMA, Dose [Carcinogen]: 100 MG/KG BW, 1/WK FOR 3 WK, Promoter: PHENOBARBITAL [50-06-6]) of the same compound?
Answer: 24/24 (100%), 9/23 (39%), 61%, p<0.001

Question: And the “tumour outcome (control, treated, inhibition, significance)” value (Carcinogen: N-METHYL-N-NITROSOUREA [684-93-5], Dose [Inhibitor]: 0, 20 MG/L IN DRINKING WATER 15 HR/D FOR 3 D BEGINNING 2 D PRIOR TO CARCINOGEN DOSE (STUDY DURATION: LIFETIME), Route [Inhibitor]: ORAL, Species: RAT, Strain/Sex: LIO/FEMALE, Target Tissue: Type of Lesion: TUMORS, Dose [Carcinogen]: 50 MG/KG BW ONCE (STUDY DURATION: LIFETIME), Promoter: NONE)?
Answer: 12/24 (50%), 8/23 (34.8%), 30.4%, not significant

Question: And the “tumour outcome (control, treated, inhibition, significance)” value (Carcinogen: N-METHYL-N-NITROSOUREA [684-93-5], Dose [Inhibitor]: 8.2 MG IN 20 µL OIL CONCENTRATE BY PIPET AT THE BASE OF THE TONGUE 1X/D FOR 20 WK BEGINNING 11 D POST FIRST CARCINOGEN D, Route [Inhibitor]: ORAL, Species: RAT, Strain/Sex: SPRAGUE-DAWLEY/FEMALE, Target Tissue: Type of Lesion: MAMMARY GLAND: TUMOR, Dose [Carcinogen]: 50 MG/KG BW 1X/WK FOR 2 WK (STUDY DURATION: 22 WK), Promoter: NONE)?
Answer: 88%, 80%, 9%, not significant

Question: And the “tumour outcome (control, treated, inhibition, significance)” value (Carcinogen: N-METHYL-N-NITROSOUREA [684-93-5], Dose [Inhibitor]: 20 UG/ML IN DRINKING WATER 17 HR/D FOR 20 WK BEGINNING 12 D POST FIRST CARCINOGEN DOSE (STUDY DURATION: 22 WK), Route [Inhibitor]: ORAL, Species: RAT, Strain/Sex: SPRAGUE-DAWLEY/FEMALE, Target Tissue: Type of Lesion: MAMMARY GLAND: TUMOR, Dose [Carcinogen]: 50 MG/KG BW 1X/WK FOR 2 WK (STUDY DURATION: 22 WK), Promoter: NONE)?
Answer: 88%, 61%, 31%, not significant

Question: What about the “tumour outcome (control, treated, inhibition, significance)” value (Carcinogen: N-METHYL-N-NITROSOUREA [684-93-5], Dose [Inhibitor]: 20 UG/ML IN DRINKING WATER, 17 HR/D BEGINNING 5 D BEFORE FIRST CARCINOGEN DOSE FOR 27 WK (STUDY DURATION: 27 WK), Route [Inhibitor]: ORAL, Species: RAT, Strain/Sex: SPRAGUE-DAWLEY/FEMALE, Target Tissue: Type of Lesion: MAMMARY GLAND: TUMOR, Dose [Carcinogen]: 50 MG/KG BW TWICE ON POSTNATAL DAYS 51 AND 58) of the same compound?
Answer: 17/18 (94%), 14/19 (73.7%), 22%, not significant

Question: And the “tumour outcome (control, treated, inhibition, significance)” value (Carcinogen: N-METHYL-N-NITROSOUREA, 684-93-5, Dose [Inhibitor]: 0, 4 UG/ML IN DRINKING WATER 17 HR/D STARTING BEFORE CARCINOGEN TREATMENT FOR THE DURATION OF THE STUDY (STUDY DURATION:, Route [Inhibitor]: SUBCUTANEOUSLY, Species: RAT, Strain/Sex: SPRAGUE-DAWLEY/FEMALE, Target Tissue: Type of Lesion: MAMMARY GLAND: TUMOR, Dose [Carcinogen]: 50 MG/KG BW 2/WK FOR 1 WK BW 43-54 POSTNATAL DAYS)?
Answer: 80%, 65%, 19%, not significant

Question: And the “tumour outcome (control, treated, inhibition, significance)” value (Carcinogen: N-METHYL-N-NITROSOUREA, 684-93-5, Dose [Inhibitor]: 0, 20 UG/ML IN DRINKING WATER FOR 17 HR/D FOR THE DURATION OF STUDY (STUDY DURATION: 180 D), Route [Inhibitor]: ORAL, Species: RAT, Strain/Sex: SPRAGUE-DAWLEY/FEMALE, Target Tissue: Type of Lesion: MAMMARY GLAND: TUMOR, Dose [Carcinogen]: 50 MG/G BW ONCE/WK FOR 2 WK BEGINNING 12 D POST INHIBITOR TREATMENT, Promoter: NONE)?
Answer: 16/20 (80%), 9/16 (56.3%), 30%, not significant

Question: And the “tumour outcome (control, treated, inhibition, significance)” value (Carcinogen: NONE USED, Dose [Inhibitor]: 0, 25 UG/MOUSE/D IN DRINKING WATER FROM DAYS 21-45 OF AGE THEN 50 UG/D FOR DURATION OF STUDY (STUDY DURATION: 12 MO), Route [Inhibitor]: ORAL, Species: MOUSE, Strain/Sex: C3H/JAX/FEMALE, Target Tissue: Type of Lesion: MAMMARY GLAND: ADENOCARCINOMA)?
Answer: 10/16 (63%), 9/39 (23%), 63%, p<0.02

Question: And the outcome (Species: RAT, Strain/Sex: LIO/FEMALE, Target Tissue: Type of Lesion: 7/21 (33%), 4/21 (19%), 42%, NOT SIGNIFICANT)?
Answer: 0.4, 0.2, 50%, not significant

Question: What about the outcome (Species: RAT, Strain/Sex: LIO/FEMALE, Target Tissue: Type of Lesion: 12/21 (57%), 3/21 (4%), 93%, P<0.01) of the same compound?
Answer: 0.8, 0.1, 88%, p<0.01

Question: What about the outcome (Species: RAT, Strain/Sex: LIO/FEMALE, Target Tissue: Type of Lesion: 20/21 (95%), 12/21 (57%), 40%, P<0.01) of the same compound?
Answer: 2.8, 1.2, 57%, p<0.01
